Reference: patent US20260021061A1, “ARIADNE AND ANALOGS FOR THE TREATMENT OF NEUROLOGICAL AND NEUROMUSCLAR DISORDERS” (priority 2022, published 2026)
Where two headings read alike, the source gives them in different places.

Tests used:
C57BL/6J mice = assay: Head twitch response (HTR) in mice; format: in vivo, mouse; settings: for HTR in presence of MDL100,907 (volinanserin), 5-HT2A antagonist: mouse, in vivo
Method: All samples were prepared the same day testing was performed. Solids were weighed into small vials and dissolved in USP grade 0.85% saline with addition of 2 molar equivalents of glacial acetic acid. Sonication and gentle heating were applied until complete dissolution. The compounds were subsequently filtered through 0.45 μm filters into a new glass vial. All compounds were administered at a 1 mg/kg subcutaneous dose at a volume of 10 mL/kg of body weight. Volinanserin hydrochloride salt (MDL 100907) was purchased from Toronto Research Chemicals.
All experimental procedures involving animals were approved by an Institutional Animal Care and Use Committee (IACUC) and adhered to principles described in the National Institutes of Health Guide for the Care and Use of Laboratory Animals. The studies were conducted at AAALAC accredited facilities. Animals received regular veterinary care (weekly by institutional veterinarians) including daily health monitoring (by experimenters) of the animals (observing home cage behaviors, nesting, and body weight). All procedures were designed to minimize any stress/distress. Healthy adult male mice C57BL/6J (8-12 weeks, 26-33 g) were purchased from the Jackson Laboratory (Bar Harbor, ME) and housed 5 mice per cage with food and water available ad libitum. Mice were maintained on a 12-h light/dark cycle (lights on 7:00-19:00) and all testing was done in the light cycle. Temperature was kept constant at 22±2° C., and relative humidity was maintained at 50±5%
The head-twitch response evaluation was performed by a trained observer who was blinded to both drug and dose. Mice were moved to the testing room 30 min before the experiment to allow for acclimation. The body weight of each mouse was recorded. Mice were administered either a 1, 3, 10, or 30 mg/kg s.c. dose of compound solution (volume of injection 260-330 μL based on body weight). […] The total number of head-twitches over the 15 minute period were recorded. Five mice were used per dose.
DOI was tested at the doses of 0.3, 1, 3, and 10 mg/kg (s.c., 5 mice per dose) and testing began immediately after administration of the compound. Ariadne was tested at the doses of 1, 3, 10, and 30 mg/kg (s.c., 5 mice per dose) and there was a 10 min interval between treatment and testing.

5-HT2A [1] = biological target: T1, 5-HT2A (Homo sapiens, UniProt P28223); assay: G protein (Gq) dissociation BRET assay; format: cell-based; parameters: host or cells: HEK293T (ATCC CRL-11268)
5-HT2A [2] = biological target: T1, 5-HT2A; assay: Radioligand displacement assay; format: binding
Method: Therefore, an orthogonal assay measuring calcium flux was also performed for the 5-HT2 receptors (Klein et al., 2020).

5-HT2B = 5-HT2B (Homo sapiens, UniProt P41595); assay: G protein (Gq) dissociation BRET assay; settings: for Emax: read-out: Emax, agonist activity
Method: (§1) All BRET assays were conducted using BRET2 in HEK293T cells (ATCC CRL-11268; mycoplasma-free), which were subcultured in high-glucose DMEM (VWR) supplemented with 10% FBS (Life Technologies).
(§2) Constructs in G protein-dissociation BRET assays were derived from the codon-optimized Tango pcDNA3.1 library (Addgene) with V2tail/TEV/tTA encoding regions deleted to yield “de-Tango” constructs. […] All Gα-Rluc8, Beta, and GFP2-γ constructs were derived from the TRUPATH pcDNA5/FRT/TO library (Addgene).
(§3) Approximately 48 hours before assays, cells were transfected using a reverse transfection method and plated in 1% dFBS at an approximate density of 15,000 cells per well into poly-L-lysine-coated 384-well white assay plates (Grenier Bio-One). For G protein-dissociation assays, cells were transfected in a 1:1:1:1 ratio of receptor: Gα-Rluc8: Beta: GFP2-γ constructs. […] All transfections were prepared in Opti-MEM (Invitrogen) and used a 3:1 ratio of TransIT-2020 (Mirus) uL:ug total DNA.
(§4) On the day of the assay, plates were decanted and 20 uL of drug buffer per well (1×HBSS, 20 mM HEPES, pH 7.4) was added using a Multidrop (ThermoFisher Scientific), and plates were allowed to equilibrate at 37° C. in a humidified incubator before receiving drug stimulation. Drug dilutions of all compounds were performed in McCorvy buffer (1×HBSS, 20 mM HEPES, pH 7.4, supplemented with 0.3% BSA fatty acid free (GoldBio), and 0.03% ascorbic acid). […] Next, plates were incubated at 37° C. in a humidified incubator for 60 minutes or specified time point. Before reading, addition of coelenterazine 400a (5 uM final concentration; Nanolight Technology) was performed by the [sequence]. Immediately after, plates were read at 400 nm Rluc and fluorescent GFP2 emission at 510 nm for BRET2 at 0.8 second per well using a PheraStarFSX (BMB Lab Tech).
(§5) The BRET ratios of 510/400 luminescence were calculated per well and were plotted as a function of drug concentration using Graphpad Prism 5 or 9 (Graphpad Software Inc., San Diego, CA). Data were normalized to % positive control stimulation and analyzed using nonlinear regression “log(agonist) vs. response” to yield Emax and EC50 parameter estimates.

5-HT2C receptor = biological target: T2, 5-HT2C receptor (Homo sapiens, UniProt P28335); assay: G protein (Gq) dissociation BRET assay; settings: for Emax: read-out: Emax, agonist activity
T2 sequence (P28335 33-458): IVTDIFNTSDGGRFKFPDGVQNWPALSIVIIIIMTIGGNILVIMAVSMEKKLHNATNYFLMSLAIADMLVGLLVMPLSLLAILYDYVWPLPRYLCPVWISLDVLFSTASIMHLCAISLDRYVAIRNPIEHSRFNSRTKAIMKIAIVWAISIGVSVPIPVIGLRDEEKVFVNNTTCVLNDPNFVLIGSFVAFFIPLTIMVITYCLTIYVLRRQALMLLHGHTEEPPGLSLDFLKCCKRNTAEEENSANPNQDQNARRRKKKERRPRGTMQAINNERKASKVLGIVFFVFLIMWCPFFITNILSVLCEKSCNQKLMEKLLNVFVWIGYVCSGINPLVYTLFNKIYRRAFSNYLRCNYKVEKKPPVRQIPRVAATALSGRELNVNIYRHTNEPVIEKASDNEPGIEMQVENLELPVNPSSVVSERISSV
Method: as §1, §2, §3, §4, §5

5-HT5a receptor = 5-HT5a receptor (Homo sapiens, UniProt P47898); assay: 5-HTome G protein activation BRET assay; settings: for agonist activity: 5-HTome screen
Method: as §1, §2, §3
(§6) On the day of the assay, plates were decanted and 20 uL of drug buffer per well (1×HBSS, 20 mM HEPES, pH 7.4) was added using a Multidrop (ThermoFisher Scientific), and plates were allowed to equilibrate at 37° C. in a humidified incubator before receiving drug stimulation. Drug dilutions of all compounds were performed in McCorvy buffer (1×HBSS, 20 mM HEPES, pH 7.4, supplemented with 0.3% BSA fatty acid free (GoldBio), and 0.03% ascorbic acid). […] Before reading, addition of coelenterazine 400a (5 uM final concentration; Nanolight Technology) was performed by the [sequence]. Immediately after, plates were read at 400 nm Rluc and fluorescent GFP2 emission at 510 nm for BRET2 at 0.8 second per well using a PheraStarFSX (BMB Lab Tech).
as §5

5-HT6 receptor = 5-HT6 receptor (Homo sapiens, UniProt P50406); assay: 5-HTome G protein activation BRET assay; settings: for agonist activity: 5-HTome screen
Method: as §1, §2, §3, §6, §5

5-HT7a receptor = 5-HT7a receptor (Homo sapiens, UniProt P34969); assay: 5-HTome G protein activation BRET assay; settings: for agonist activity: 5-HTome screen
Method: as §1, §2, §3, §6, §5

5-HT1E receptor = 5-HT1E receptor (Homo sapiens, UniProt P28566); assay: 5-HTome G protein activation BRET assay
Method: as §1, §2, §3, §6, §5

[3] = 5-HTome screen, read-out: Emax, agonist activity
[4] = EC50 (EC50/Gq), Gq dissociation, Gq dissociation BRET
[5] = EC50, agonist activity, 5-HTome screen
[6] = EC50, Gq dissociation, Gq dissociation BRET

Chain of 5-HT6 receptor (P50406 whole entry): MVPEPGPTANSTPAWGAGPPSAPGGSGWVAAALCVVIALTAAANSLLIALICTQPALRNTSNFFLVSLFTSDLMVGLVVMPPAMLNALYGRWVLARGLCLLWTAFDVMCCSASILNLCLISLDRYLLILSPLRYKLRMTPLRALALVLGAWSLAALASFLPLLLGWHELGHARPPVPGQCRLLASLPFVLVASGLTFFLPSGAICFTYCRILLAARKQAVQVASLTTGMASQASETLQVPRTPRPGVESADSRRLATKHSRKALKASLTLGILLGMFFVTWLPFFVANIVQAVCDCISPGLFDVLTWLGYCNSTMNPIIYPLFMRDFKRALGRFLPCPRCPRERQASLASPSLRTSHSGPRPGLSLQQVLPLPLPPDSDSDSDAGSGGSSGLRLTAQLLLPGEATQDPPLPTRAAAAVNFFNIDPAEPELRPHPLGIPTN
Chain of 5-HT1E receptor (P28566 whole entry): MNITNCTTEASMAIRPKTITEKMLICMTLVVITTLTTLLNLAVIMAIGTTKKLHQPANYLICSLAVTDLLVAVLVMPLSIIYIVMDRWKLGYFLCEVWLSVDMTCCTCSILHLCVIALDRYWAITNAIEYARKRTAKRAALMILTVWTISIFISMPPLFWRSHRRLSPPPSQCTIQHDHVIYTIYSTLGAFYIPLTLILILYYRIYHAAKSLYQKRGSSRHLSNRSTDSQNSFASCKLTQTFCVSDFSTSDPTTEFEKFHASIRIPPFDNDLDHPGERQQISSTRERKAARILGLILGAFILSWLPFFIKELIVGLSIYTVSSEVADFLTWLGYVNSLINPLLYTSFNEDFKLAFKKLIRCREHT
Chain of 5-HT2B (P41595 whole entry): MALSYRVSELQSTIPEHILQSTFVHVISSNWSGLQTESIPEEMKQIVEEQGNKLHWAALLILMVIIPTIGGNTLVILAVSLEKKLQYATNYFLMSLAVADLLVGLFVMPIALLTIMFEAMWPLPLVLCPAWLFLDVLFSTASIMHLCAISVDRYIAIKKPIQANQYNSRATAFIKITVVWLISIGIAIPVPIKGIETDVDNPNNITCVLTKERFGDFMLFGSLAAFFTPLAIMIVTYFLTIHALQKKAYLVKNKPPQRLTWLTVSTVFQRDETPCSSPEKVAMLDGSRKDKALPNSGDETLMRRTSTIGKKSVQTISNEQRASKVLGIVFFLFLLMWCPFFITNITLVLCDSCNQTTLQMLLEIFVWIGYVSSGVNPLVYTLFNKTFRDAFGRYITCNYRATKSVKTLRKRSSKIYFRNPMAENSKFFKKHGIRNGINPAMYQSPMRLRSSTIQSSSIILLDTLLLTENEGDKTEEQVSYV
Chain of 5-HT7a receptor (P34969 1-445 isoform P34969-2): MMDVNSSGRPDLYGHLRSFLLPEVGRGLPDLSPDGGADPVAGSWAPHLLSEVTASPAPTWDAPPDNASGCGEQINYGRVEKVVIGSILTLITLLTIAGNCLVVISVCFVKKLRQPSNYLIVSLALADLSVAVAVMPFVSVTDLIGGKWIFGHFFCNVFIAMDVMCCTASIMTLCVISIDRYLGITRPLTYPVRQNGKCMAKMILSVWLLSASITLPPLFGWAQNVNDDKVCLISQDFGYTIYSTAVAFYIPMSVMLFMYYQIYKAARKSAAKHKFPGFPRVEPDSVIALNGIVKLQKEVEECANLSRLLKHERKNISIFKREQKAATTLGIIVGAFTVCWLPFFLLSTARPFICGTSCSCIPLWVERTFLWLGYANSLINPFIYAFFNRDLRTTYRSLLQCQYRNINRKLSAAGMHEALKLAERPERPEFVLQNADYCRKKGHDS
Chain of 5-HT5a receptor (P47898 whole entry): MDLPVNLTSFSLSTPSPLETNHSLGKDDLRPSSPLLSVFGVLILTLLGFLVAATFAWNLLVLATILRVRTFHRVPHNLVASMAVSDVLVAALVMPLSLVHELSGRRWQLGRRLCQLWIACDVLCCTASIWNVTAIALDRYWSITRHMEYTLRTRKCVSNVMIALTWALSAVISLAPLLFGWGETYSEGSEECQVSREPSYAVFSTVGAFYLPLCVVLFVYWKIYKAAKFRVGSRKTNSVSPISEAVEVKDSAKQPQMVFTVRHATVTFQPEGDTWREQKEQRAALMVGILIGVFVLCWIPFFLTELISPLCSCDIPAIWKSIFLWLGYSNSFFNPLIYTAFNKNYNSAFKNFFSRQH
T1 sequence (P28223 whole entry): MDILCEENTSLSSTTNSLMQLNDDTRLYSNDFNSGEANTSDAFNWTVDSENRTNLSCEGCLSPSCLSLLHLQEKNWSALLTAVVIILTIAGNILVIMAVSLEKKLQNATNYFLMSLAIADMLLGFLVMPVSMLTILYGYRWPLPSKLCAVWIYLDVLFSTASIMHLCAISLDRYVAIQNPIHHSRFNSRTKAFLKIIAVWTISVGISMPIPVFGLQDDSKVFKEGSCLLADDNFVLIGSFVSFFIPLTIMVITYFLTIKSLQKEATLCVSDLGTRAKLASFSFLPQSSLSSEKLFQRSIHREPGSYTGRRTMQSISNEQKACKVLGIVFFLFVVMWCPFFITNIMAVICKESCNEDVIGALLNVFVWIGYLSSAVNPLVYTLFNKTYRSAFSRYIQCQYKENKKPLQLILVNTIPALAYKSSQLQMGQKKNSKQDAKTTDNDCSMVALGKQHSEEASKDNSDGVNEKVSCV

`CCC(N)Cc1cc(OC)c(C(F)(F)F)cc1OC` (racemic) [Compound 29, 1-(2,5-dimethoxy-4-(trifluoromethyl)phenyl)butan-2-amine] was tested, and the “HTR in presence of MDL100,907 (volinanserin), 5-HT2A antagonist” value (C57BL/6J mice) was “completely inhibited” and the “selectivity for 5-HT2A over 5-HT2B” value (5-HT2A [1]; by Gq dissociation signaling potency) was 8 fold.
In the case of `CC[C@@H](N)Cc1cc(OC)c(C)cc1OC` [(R)-Ariadne], the Ki (5-HT2A [2]) is reported as 53 nM, the “HTR in presence of MDL100,907 (volinanserin), 5-HT2A antagonist” value (C57BL/6J mice) is reported as “completely inhibited” and the “dose of maximum (peak) HTR” value (C57BL/6J mice; s.c.) is reported as 10 mg/kg. It also gave an Emax (5-HT2A [1]; [3]) of over 70%, an EC50 (5-HT2A [1]; [4]) of 149 nM and an EC50 (5-HT2A [1]; [5]) of under 1000 nM. It also gave an Emax (5-HT2A [1]; Gq dissociation BRET, normalized to 5-HT, read-out: Emax (Emax/Gq) relative to 5-HT) of 75%, an EC50 (5-HT2B; [6]) of 739 nM and an EC50 (5-HT2B; [5]) of under 1000 nM. For the same compound, the Emax (5-HT2B) was over 70%, the EC50 (5-HT2C receptor; [6]) was 249 nM and the EC50 (5-HT2C receptor; [5]) was under 1000 nM. The Emax (5-HT2C receptor) was over 70%, the agonist activity (5-HT5a receptor) was “Little to no agonist activity” and the agonist activity (5-HT6 receptor) was “Little to no agonist activity”. For the same compound, the agonist activity (5-HT7a receptor) was “Little to no agonist activity”, the EC50 (5-HT1E receptor) was about 200 nM and the Emax (5-HT1E receptor) was over 70%.
In the case of `CCC(N)Cc1cc(OC)c(C)cc1OC` (racemic) [Compound 32, 1-(2,5-dimethoxy-4-methylphenyl)butan-2-amine], the Ki (5-HT2A [2]) is reported as 120 nM, the “decrease in HTR count per 15 min compared to racemic DOPR” value (C57BL/6J mice; s.c.) is reported as over 3 fold and the “dose of maximum (peak) HTR” value (C57BL/6J mice; s.c.) is reported as 10 mg/kg. It also gave an Emax (5-HT2A [1]; [3]) of over 70%, an EC50 (5-HT2A [1]; [4]) of 185 nM and an EC50 (5-HT2A [1]; [5]) of under 1000 nM. The “signaling potency and efficacy in comparison to DOM” value (5-HT2A [1]; Gq, G11 and β-arrestin2 pathways coupled to 5-HT2A) was “lower signaling potency and efficacy”, the EC50 (5-HT2B; [5]) was under 1000 nM and the Emax (5-HT2B) was over 70%. For the same compound, the EC50 (5-HT2C receptor; [5]) was under 1000 nM, the Emax (5-HT2C receptor) was over 70% and the EC50 (5-HT5a receptor) was over 10000 nM. For the same compound, the agonist activity (5-HT5a receptor) was “Little to no agonist activity”, the EC50 (5-HT6 receptor) was over 10000 nM and the agonist activity (5-HT6 receptor) was “Little to no agonist activity”. For the same compound, the EC50 (5-HT7a receptor) was over 10000 nM, the agonist activity (5-HT7a receptor) was “Little to no agonist activity” and the “selectivity of 5-HT2 over 5-HT1E and 5-HT1F receptors” value (5-HT1E receptor; also 5-HT1F) was 0.5-1 log.
